Assay: xn = mol fraction of the nth substance listed

O=CN1CCOCC1 + Brc1ccccc1
viscosity [mPa·s], 101 kPa
Conditions	x1 = 0.1046	x1 = 0.2081	x1 = 0.3106	x1 = 0.412	x1 = 0.5124	x1 = 0.6119	x1 = 0.7103	x1 = 0.8078	x1 = 0.9044
303.15 K	1.051	1.188	1.392	1.666	2.029	2.502	3.141	3.952	5.052
308.15 K	1.002	1.119	1.297	1.538	1.858	2.274	2.809	3.511	4.419
313.15 K	0.953	1.057	1.22	1.442	1.727	2.105	2.585	3.211	4.012

OCCO + CC#N
viscosity [mPa·s], 100 kPa
Conditions	x2 = 0.1016	x2 = 0.2004	x2 = 0.3019	x2 = 0.3984	x2 = 0.4901	x2 = 0.6353	x2 = 0.6987	x2 = 0.8061	x2 = 0.8984
293.15 K	13	8.4	5.53	3.48	2.4	1.35	1.06	0.71	0.51
298.15 K	11.2	7.41	4.87	3.19	2.21	1.25	0.98	0.66	0.48
303.15 K	9.25	6.17	4.25	2.85	2.01	1.17	0.93	0.63	0.45

C=CCc1ccc(O)c(OC)c1 + CCCCCOC(C)=O
298.15 K, 101 kPa
Conditions	viscosity [mPa·s]
x1 = 0.1	0.698
x1 = 0.162	1.11

S=C=S + ClC(Cl)(Cl)Cl
101 kPa
Conditions	viscosity [mPa·s]
293.15 K, x1 = 0.223	0.74
293.15 K, x1 = 0.526	0.52
293.15 K, x1 = 0.628	0.47
293.15 K, x1 = 0.718	0.43
293.15 K, x1 = 0.794	0.41
293.15 K, x1 = 0.85	0.39
293.15 K, x1 = 0.914	0.38
298.15 K, x1 = 0.1	0.7919
298.15 K, x1 = 0.2	0.7079
298.15 K, x1 = 0.3	0.6441
298.15 K, x1 = 0.4	0.591
298.15 K, x1 = 0.5	0.5423
298.15 K, x1 = 0.6	0.4948
298.15 K, x1 = 0.7	0.4484
298.15 K, x1 = 0.8	0.4061
298.15 K, x1 = 0.9	0.3741

CCCCCCCCCCCO + CCCCCCCO
viscosity [mPa·s]
Conditions	x2 = 0.1397	x2 = 0.2254	x2 = 0.388	x2 = 0.5976	x2 = 0.7764	x2 = 0.9311
293.15 K, 101 kPa	–	14.95	–	–	–	–
298.15 K, 101.8 kPa	12.82	–	10.49	8.805	7.365	6.099
308.15 K, 101.8 kPa	8.867	–	7.363	6.26	5.311	4.433
318.15 K, 101.8 kPa	6.299	–	5.309	4.554	3.906	3.289

CC(C)NC(C)C + CCCCCCCCCCO
viscosity [mPa·s], 101 kPa
Conditions	298.15 K	303.15 K	308.15 K
x1 = 0.0531	9.942	8.148	6.888
x1 = 0.1065	8.911	7.421	6.317
x1 = 0.1557	8.093	6.67	5.66
x1 = 0.2072	7.186	5.835	4.947
x1 = 0.2506	6.335	5.168	4.413
x1 = 0.3127	5.184	4.271	3.777
x1 = 0.4084	3.737	3.133	2.732
x1 = 0.5054	2.653	2.228	2.059
x1 = 0.6066	1.752	1.522	1.375
x1 = 0.7056	1.183	1.059	0.956
x1 = 0.8036	0.838	0.75	0.702
x1 = 0.853	0.689	0.628	0.587
x1 = 0.9073	0.531	0.494	0.467
x1 = 0.9521	0.459	0.43	0.358

NCc1ccccc1 + CCC(C)(C)O
viscosity [mPa·s], 101.33 kPa
Conditions	x1 = 0.1	x1 = 0.2001	x1 = 0.3	x1 = 0.4	x1 = 0.5	x1 = 0.6	x1 = 0.6999	x1 = 0.7994	x1 = 0.8998
298.15 K	3.228	2.988	2.781	2.576	2.394	2.223	2.067	1.927	1.792
303.15 K	2.641	2.463	2.289	2.143	1.995	1.882	1.773	1.668	1.578
308.15 K	2.193	2.043	1.919	1.793	1.696	1.609	1.533	1.468	1.422

CCCCCC(C)O (stereo not given) + CCCCCCCCCCCC
298.15 K, 101 kPa
Conditions	viscosity [mPa·s]
x2 = 0.0554	4.35
x2 = 0.0998	3.85
x2 = 0.1555	3.3
x2 = 0.1998	2.92
x2 = 0.2554	2.51
x2 = 0.2998	2.23
x2 = 0.3554	1.94
x2 = 0.4	1.74
x2 = 0.4555	1.54
x2 = 0.4999	1.42
x2 = 0.5554	1.3
x2 = 0.5998	1.22
x2 = 0.6554	1.16
x2 = 0.6998	1.12
x2 = 0.7553	1.09
x2 = 0.7999	1.08
x2 = 0.8554	1.07
x2 = 0.8995	1.06
x2 = 0.9546	1.11

CC(O)CN(CC(C)O)CC(C)O (stereo not given) + O
viscosity [mPa·s], 101 kPa
Conditions	303.15 K	313.15 K	318.15 K
x1 = 0.005	–	–	0.7315
x1 = 0.03	2.395	1.775	–

CCCCCCCCCCCO + CCCCCCCCO
viscosity [mPa·s]
Conditions	293.15 K	298.15 K	308.15 K	318.15 K
101 kPa, x2 = 0.1003	–	13.35	–	–
101 kPa, x2 = 0.6998	10.95	–	–	–
101.8 kPa, x2 = 0.1273	–	13.25	9.151	6.474
101.8 kPa, x2 = 0.3622	–	11.61	8.096	5.781
101.8 kPa, x2 = 0.5698	–	10.24	7.208	5.187
101.8 kPa, x2 = 0.756	–	9.094	6.447	4.673
101.8 kPa, x2 = 0.9212	–	7.658	5.5	4.027

OCCO + CCCCO
298 K, 101.33 kPa
Conditions	viscosity [mPa·s]
x1 = 0.1527	3.18
x1 = 0.5229	6.05
x1 = 0.7115	8.75
x1 = 0.868	12.33
